Counter-ions that a name gives are not always drawn. Like-named read-outs stand apart in the source and are kept apart here.
Experiments:
[1] = biological target: T1, JAK2 (Homo sapiens, UniProt O60674); design: method as in earlier work; conditions: Figure 13; read-out: IC50 of commercially available JAK2 inhibitors; cited from earlier work
T1 construct: purchased BPS Bioscience

[2] = biological target: T1, JAK2; assay: JAK2 activity assay (JAK2 assay kit, BPS Bioscience; Kinase Glo Max luminescence); format: biochemical
Experimental: According to the manufacturer’s instructions, the assay was performed in a white 96-well plate, in a total volume of 50 μL, adding a 5× kinase assay buffer, ATP (500 μM), protein tyrosine kinase substrate (10 mg/mL), water, tested molecules diluted in 0.1% DMSO solution, and JAK2 enzyme (2.5 ng/μL).
After 15 min of incubation at room temperature, the luminescence was measured by EnSpire Multimode Plate Reader (Perkin Elmer). All measurements were performed in triplicates for each compound, and the concentration range tested was 0.1–10 000 nM.

[3] = tested on: SH-SY5Y cells; assay: MTT cell viability assay; format: cell-based, Human; conditions: 100 μM, after 5 or 24 h, vs vehicle control
Experimental: Human SH-SY5Y neuroblastoma cells purchased from ICLC-IST (Genoa, Italy), were cultured in Dulbecco’s modified Eagle’s medium (DMEM), supplemented with 10% (v/v) fetal bovine serum (FBS), 100 units/mL penicillin, 100 μg/mL streptomycin, and 2 mM glutamine. Cells were incubated at 37 °C in a humidified atmosphere containing 5% CO2 and were allowed to reach 80% confluence before starting treatments. All reagents employed for cell culture were purchased from Lonza (Milan, Italy).
Drugs effects on cell viability were measured using the MTT [3-(4,5-dimethylthiazol-2-yl)-2,5-diphenyltetrazolium bromide] assay.[40] All reagents were purchased from Sigma-Aldrich (Milan, Italy) unless otherwise indicated. Briefly, cells were plated on 24-well plates at a density of 3 × 10^4 cells/well and were grown to reach 80% confluence. Cells were treated with vehicle (DMEM containing 0.1% dimethyl sulfoxide (DMSO)) or drugs dissolved in vehicle at the final concentrations of 1, 10, or 100 μM. After 5 or 24 h, the culture medium was removed and replaced with fresh DMEM containing the MTT solution (0.5 mg/mL) and cells were incubated in the dark for 3 h at 37 °C. […] The optical densities (ODs) were then recorded using a microplate spectrophotometer (GENios Tecan, Austria) at 590 nm. Results were expressed as a percentage of OD values of drug-treated cell cultures compared to vehicle-treated ones.

[4] = Solubility for in vitro testing; format: physicochemical; conditions: reason for not testing in vitro
[5] = 95% confidence limits in brackets, triplicates, read-out: IC50 in the enzymatic assay for JAK2 inhibition
[6] = as quoted in abstract and conclusions, read-out: IC50 against JAK2

T1 sequence (O60674 whole entry): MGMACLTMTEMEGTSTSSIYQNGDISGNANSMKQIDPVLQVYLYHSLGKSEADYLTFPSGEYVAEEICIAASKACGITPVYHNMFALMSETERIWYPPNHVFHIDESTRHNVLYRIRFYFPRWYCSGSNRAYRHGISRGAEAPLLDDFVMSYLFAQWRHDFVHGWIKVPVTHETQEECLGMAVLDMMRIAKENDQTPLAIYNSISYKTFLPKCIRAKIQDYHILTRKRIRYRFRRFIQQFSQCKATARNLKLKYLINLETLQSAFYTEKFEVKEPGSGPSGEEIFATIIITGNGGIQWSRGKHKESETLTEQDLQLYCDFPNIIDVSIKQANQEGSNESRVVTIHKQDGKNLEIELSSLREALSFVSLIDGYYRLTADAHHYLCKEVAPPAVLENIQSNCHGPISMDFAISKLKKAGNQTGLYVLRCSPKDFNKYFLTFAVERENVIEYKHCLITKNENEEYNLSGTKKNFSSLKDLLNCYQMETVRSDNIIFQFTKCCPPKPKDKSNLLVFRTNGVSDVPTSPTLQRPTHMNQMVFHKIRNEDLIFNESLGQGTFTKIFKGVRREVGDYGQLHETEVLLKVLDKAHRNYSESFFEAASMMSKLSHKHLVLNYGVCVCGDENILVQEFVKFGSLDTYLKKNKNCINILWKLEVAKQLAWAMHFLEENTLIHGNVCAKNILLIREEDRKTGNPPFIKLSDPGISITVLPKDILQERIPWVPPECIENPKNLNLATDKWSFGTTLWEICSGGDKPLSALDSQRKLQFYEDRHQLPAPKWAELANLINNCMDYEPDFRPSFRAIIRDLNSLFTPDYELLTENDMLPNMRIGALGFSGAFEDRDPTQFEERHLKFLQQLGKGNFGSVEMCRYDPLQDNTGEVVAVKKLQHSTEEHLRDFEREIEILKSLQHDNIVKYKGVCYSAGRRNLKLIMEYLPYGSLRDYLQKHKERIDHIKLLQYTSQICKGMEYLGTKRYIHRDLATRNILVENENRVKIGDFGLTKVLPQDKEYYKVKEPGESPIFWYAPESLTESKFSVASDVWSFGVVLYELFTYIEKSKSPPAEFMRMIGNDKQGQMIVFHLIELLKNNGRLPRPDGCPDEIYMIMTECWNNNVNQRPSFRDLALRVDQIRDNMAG

Structure (SMILES) | IC50 [1] [µM] | IC50 [2, 5] [µM] | other results
CCCC1(CCC)CCC2(CCN(CCCN(CC)CC)C2)CC1 [Atiprimod dihydrochloride] | 0.4 |  | 
COc1cccc(C2C(C#N)=C(N)Oc3[nH]nc(C)c32)c1 (stereo not shown) [Compound 3] |  | > 10 | 
CC(=O)Nc1cc(Oc2ccc3c(nc(Nc4ccc(F)cc4F)n3C)c2C)ccn1 [CHZ868] | 0.17 |  | 
O=C1C2C3C=CC(CO)(O3)C2C(=O)N1c1cccc([N+](=O)[O-])c1 (stereo not shown) [Compound 4] |  | 0.807 | IC50 [2, 6]: 0.81 µM
NS(=O)(=O)c1ccc(NC(=O)Cn2cnc3scc(-c4ccco4)c3c2=O)cc1 [Compound 7] |  | 0.637 | IC50 [2, 6]: 0.64 µM
Cc1n[nH]c(C)c1C(=O)CC1(O)C(=O)N(Cc2ccccc2)c2ccccc21 (stereo not shown) [Compound 5] |  | > 10 | 
COC(=O)C1=C(C)NC(C)=C(C(=O)OCCN2CCN(C(=O)c3ccco3)CC2)C1c1cccc([N+](=O)[O-])c1 (stereo not shown) [Compound 8] |  | > 10 | Cell viability (MTT) [3]: significant decrease
CC(CCc1ccccn1)(CCc1ccccn1)C(=O)c1ccccc1 [NSC 42834] | 15 |  | 
C[C@H](NC(=O)/C(C#N)=C/c1cccc(Br)n1)c1ccccc1 [WP1066] | 2.3 |  | 
COCCNC(=O)c1cc2c(=O)n3cccc(C)c3nc2n(Cc2ccco2)c1=N [Compound 2] |  |  | Solubility [4]: solubility problems
CC(=O)c1oc2ccccc2c1N [Compound 1] |  | > 10 | 
O=C(O)CSc1nnc2n1CCCN2 [Compound 6] |  | > 10 | Cell viability (MTT) [3]: significant decrease
